Converted amounts (≈) assume the structure as drawn.
Assays:
[1] = DNDI: Cytotoxicity against L929 mouse fibroblasts, 72 hour.; type: toxicity, cell-based; conditions: mouse, L929 mouse fibroblasts
Trypanosoma brucei [2] = test: DNDI: Inhibition of Human African Trypanosomiasis, SBRI 427, in vitro; type: functional, organism-based
Trypanosoma brucei [3] = test: DNDI: Mean survival time in days (MSD) of mice after intraperitoneal injection of Human African Trypanosomiasis (HAT), EATRO 110, in vivo at 50 mg/kg/day for 4 days.; type: functional, Mus musculus
Trypanosoma brucei [4] = test: DNDI: Mean survival time in days (MSD) of mice after intraperitoneal injection of Human African Trypanosomiasis (HAT), STIB 795, in vivo at 50 mg/kg/day for 4 days.; type: functional, Mus musculus
[5] = DNDI: Lipophilicity measured in Chromatographic hydrophobicity index (CHI) assay, pH 7.4; type: physicochemical; conditions: buffer
[6] = DNDI: % of compound remaining in mouse S9 microsomes at a concentration of 1uM after 60 mins; type: ADME, subcellular, Liver, S9 fraction
[7] = DNDI: % of compound remaining in rat S9 microsomes at a concentration of 1uM; type: ADME, subcellular, Liver, S9 fraction
[8] = DNDI: Solubility in phosphate buffered saline at pH7.4 measured by nephelometry at room temperature (NEPH-RT); type: physicochemical; conditions: pH 7.4
[9] = mouse, microsomes, 1 µM
Description: (§1) DNDI: in vitro intrinsic clearance in mouse liver microsomes at a concentration of 1uM

in vitro [10] = conditions: mouse, liver microsomes, t (1 / 2)
Description: DNDI: half life in mouse liver microsomes at a concentration of 1uM

[11] = DNDI: Cytotoxicity against L929 mouse fibroblasts, CYTO-SP, 24 hour; type: toxicity, cell-based; conditions: mouse, L929 mouse fibroblasts
Trypanosoma brucei [12] = test: DNDI: Inhibition of Human African Trypanosomiasis, EATRO 110, in vitro; type: functional, organism-based
Trypanosoma brucei [13] = test: DNDI: Mean survival time in days (MSD) of mice after intraperitoneal injection of Human African Trypanosomiasis (HAT), EATRO 110, at 0.5 mg/kg/day for 4 days.; type: functional, Mus musculus
Trypanosoma brucei [14] = test: DNDI: Mean survival time in days (MSD) of mice after intraperitoneal injection of Human African Trypanosomiasis (HAT), EATRO 110, in vivo at 20 mg/kg/day for 4 days.; type: functional, Mus musculus
Trypanosoma brucei [15] = test: DNDI: Mean survival time in days (MSD) of mice after intraperitoneal injection of Human African Trypanosomiasis (HAT), EATRO 110, in vivo at 1.25 mg/kg/day for 4 days.; type: functional, Mus musculus
Trypanosoma brucei [16] = test: DNDI: Mean survival time in days (MSD) of mice after intraperitoneal injection of Human African Trypanosomiasis (HAT), EATRO 110, in vivo at 2.5 mg/kg/day for 4 days.; type: functional, Mus musculus
Trypanosoma brucei [17] = test: DNDI: Mean survival time in days (MSD) of mice after intraperitoneal injection of Human African Trypanosomiasis (HAT), EATRO 110, in vivo at 12.5 mg/kg/day for 4 days.; type: functional, Mus musculus
Trypanosoma brucei [18] = test: DNDI: Mean survival time in days (MSD) of mice after intraperitoneal injection of Human African Trypanosomiasis (HAT), EATRO 110, in vivo at 5 mg/kg/day for 4 days.; type: functional, Mus musculus
[19] = DNDI: in vitro intrinsic clearance in mouse liver microsomes at a concentration of 10uM; type: ADME, Microsome; conditions: read-out: CLint in vitro
[20] = DNDI: half life in mouse liver microsomes at a concentration of 10uM; type: ADME, Microsome
MDR1 (ABCB1) [21] = target: T1, MDR1 (ABCB1) (Homo sapiens, UniProt P08183); test: DNDI: % of compound recovered from apical to basolateral permeability assay in MDCK cells transfected with human MDR1; type: ADME, cell-based, Canis lupus familiaris; conditions: dog
T1 sequence (P08183 whole entry): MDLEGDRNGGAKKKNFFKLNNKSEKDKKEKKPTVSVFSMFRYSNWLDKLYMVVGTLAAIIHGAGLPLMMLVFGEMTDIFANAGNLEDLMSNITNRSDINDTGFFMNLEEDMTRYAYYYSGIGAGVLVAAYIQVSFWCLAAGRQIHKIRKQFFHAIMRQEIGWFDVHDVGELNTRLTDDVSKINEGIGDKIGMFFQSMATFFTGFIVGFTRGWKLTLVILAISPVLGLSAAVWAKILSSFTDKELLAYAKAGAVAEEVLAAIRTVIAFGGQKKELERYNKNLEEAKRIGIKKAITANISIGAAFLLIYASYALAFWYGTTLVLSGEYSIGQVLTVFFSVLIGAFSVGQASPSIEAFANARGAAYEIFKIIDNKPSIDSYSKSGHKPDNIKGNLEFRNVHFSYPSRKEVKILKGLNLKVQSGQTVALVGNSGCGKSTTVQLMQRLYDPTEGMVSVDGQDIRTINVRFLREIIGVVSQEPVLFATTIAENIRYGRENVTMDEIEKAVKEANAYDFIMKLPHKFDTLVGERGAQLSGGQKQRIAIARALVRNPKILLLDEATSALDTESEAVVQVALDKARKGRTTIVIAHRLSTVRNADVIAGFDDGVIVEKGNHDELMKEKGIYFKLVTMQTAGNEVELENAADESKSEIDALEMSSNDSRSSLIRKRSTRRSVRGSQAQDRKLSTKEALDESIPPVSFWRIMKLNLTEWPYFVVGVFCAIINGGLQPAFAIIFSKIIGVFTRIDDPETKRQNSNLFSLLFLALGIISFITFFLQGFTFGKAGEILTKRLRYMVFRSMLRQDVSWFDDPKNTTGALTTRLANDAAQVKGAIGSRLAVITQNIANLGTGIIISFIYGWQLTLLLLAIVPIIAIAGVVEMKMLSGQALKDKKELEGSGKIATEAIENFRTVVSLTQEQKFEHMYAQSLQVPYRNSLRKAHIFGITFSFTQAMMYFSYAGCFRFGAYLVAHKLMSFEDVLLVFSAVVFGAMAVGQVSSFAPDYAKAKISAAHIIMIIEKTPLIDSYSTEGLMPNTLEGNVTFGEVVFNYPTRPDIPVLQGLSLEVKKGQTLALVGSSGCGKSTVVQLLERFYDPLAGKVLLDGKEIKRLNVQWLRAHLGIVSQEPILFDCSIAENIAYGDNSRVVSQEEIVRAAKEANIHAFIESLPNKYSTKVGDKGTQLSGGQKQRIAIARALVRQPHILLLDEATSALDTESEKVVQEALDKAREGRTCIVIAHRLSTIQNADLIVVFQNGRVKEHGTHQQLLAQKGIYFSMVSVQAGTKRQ

MDR1 (ABCB1) [22] = target: T1, MDR1 (ABCB1); test: DNDI: Apparent permeability from apical to basolateral side of the MDCK cell transfected with human MDR1; type: ADME, cell-based, Canis lupus familiaris; conditions: dog
MDR1 (ABCB1) [23] = target: T1, MDR1 (ABCB1); test: DNDI: Apparent permeability from basolateral to apical side of the MDCK cell transfected with human MDR1 after 60 mins at a concentration of 3uM; type: ADME, cell-based, Canis lupus familiaris; conditions: dog
MDR1 (ABCB1) [24] = target: T1, MDR1 (ABCB1); test: DNDI: % of compound recovered from basolateral to apical permeability assay in MDCK cells transfected with human MDR1; type: ADME, cell-based, Canis lupus familiaris; conditions: dog
MDR1 (ABCB1) [25] = target: T1, MDR1 (ABCB1); test: DNDI: Efflux ratio for permeability from basolateral to apical side to apical to basolateral side of MDCK cells transfected with human MDR1; type: ADME, cell-based, Canis lupus familiaris; conditions: dog
[26] = DNDI: Solubility in phosphate buffered saline at pH7.4 measured by optical density (turbidimetry) at room temperature (OD-RT); type: physicochemical; conditions: pH 7.4
[27] = DNDI: half-life in mouse S9 microsomes at a concentration of 1uM; type: ADME, subcellular, Liver, S9 fraction
MDR1 (ABCB1) [28] = target: T1, MDR1 (ABCB1); test: DNDI: % of compound recovered from apical to basolateral permeability assay in MDCK cells transfected with human MDR1 after 60 mins at a concentration of 3uM; type: ADME, cell-based, Canis lupus familiaris; conditions: dog
MDR1 (ABCB1) [29] = target: T1, MDR1 (ABCB1); test: DNDI: Apparent permeability from apical to basolateral side of the MDCK cell transfected with human MDR1after 60 mins at a concentration of 3uM; type: ADME, cell-based, Canis lupus familiaris; conditions: dog, MDCK-MDR1
MDR1 (ABCB1) [30] = target: T1, MDR1 (ABCB1); test: DNDI: % of compound recovered from membrane of apical to basolateral permeability assay in MDCK cells transfected with human MDR1 after 60 mins at a concentration of 3uM; type: ADME, cell-based, Canis lupus familiaris; conditions: dog, read-out: Mem Rec
MDR1 (ABCB1) [31] = target: T1, MDR1 (ABCB1); test: DNDI: % of compound recovered from apical to basolateral permeability assay in MDCK cells transfected with human MDR1 after 60 mins at a concentration of 3uM in the presence of GF120918; type: ADME, cell-based, Canis lupus familiaris; conditions: dog, MDCK-MDR1, with GF120918 (concentration not stated)
MDR1 (ABCB1) [32] = target: T1, MDR1 (ABCB1); test: DNDI: % of compound recovered from membrane of apical to basolateral permeability assay in MDCK cells transfected with human MDR1 after 60 mins at a concentration of 3uM in the presence of GF120918; type: ADME, cell-based, Canis lupus familiaris; conditions: dog, MDCK-MDR1, with GF120918 (concentration not stated); read-out: Mem Rec
[33] = human, microsomes, 1 µM
Description: (§2) DNDI: half life in human liver microsomes at a concentration of 1uM

[34] = human, microsomes, 1 µM; remark: listed apart in the source
Description: (§3) DNDI: in vitro intrinsic clearance in human liver microsomes at a concentration of 1uM

in vitro [35] = conditions: human, liver microsomes, t (1 / 2)
Description: as §2

in vitro [36] = conditions: human, liver microsomes, CLint in vitro
Description: as §3

in vitro [37] = conditions: mouse, liver microsomes
Description: as §1

[38] = Trypanosoma brucei, SBRI 427, read-out: IC50

`CCCCc1ccc(-c2nc(CNCCC3CCCN3C)co2)cc1` (stereo unspecified) showed an IC50 at 72 h [1] of 4.21 µg/mL (≈ 12.3 µM), an IC50 (Trypanosoma brucei [2]) of 0.21 µg/mL (≈ 0.615 µM) and an IC50 (Trypanosoma brucei [2]; [38]) of 0.19 µg/mL (≈ 0.556 µM). It also gave an MSD (Trypanosoma brucei [3]) of 10 days, an MSD (Trypanosoma brucei [4]) of 7 days and a chromatographic logD [5] of 4.69. It also gave a remaining at 1 h, 1 µM [6] of 57.4%, a remaining at 1 µM [7] of 3.27% and a solubility kinetic [8] of 100 µM (≈ 34.1 µg/mL). The CLint in vitro [9] was 23 µL/min/mg and the half-life at 1 µM (in vitro [10]) was 37 min.

For `COc1ccccc1Oc1ncccc1/C(=N\O)NC1CCCCC1`, the IC50 at 24 h [11] was over 50 µg/mL, the IC50 (Trypanosoma brucei [12]) was 1.56 µg/mL (≈ 4.57 µM) and the IC50 (Trypanosoma brucei [2]; [38]) was 0.78 µg/mL (≈ 2.28 µM). The MSD (Trypanosoma brucei [13]) was 4 days, the MSD (Trypanosoma brucei [14]) was 4.3 days and the MSD (Trypanosoma brucei [15]) was 4 days. It also gave an MSD (Trypanosoma brucei [16]) of 4 days, an MSD (Trypanosoma brucei [17]) of 4 days and an MSD (Trypanosoma brucei [18]) of 4 days. For the same molecule, the chromatographic logD [5] was 3.77, the microsomal CLint at 10 µM [19] was 138 µL/min/mg and the half-life at 10 µM [20] was 21 min. The recovery (MDR1 (ABCB1) [21]) was 77%, the Papp A→B (MDR1 (ABCB1) [22]) was 18.4 ×10⁻⁶ cm/s and the Papp B→A at 1 h, 3 µM (MDR1 (ABCB1) [23]) was 48.3 ×10⁻⁶ cm/s. For the same molecule, the recovery (MDR1 (ABCB1) [24]) was 84%, the efflux ratio (MDR1 (ABCB1) [25]; read-out: B-A/A-B) was 2.6 and the solubility kinetic [26] was 25 µM (≈ 8.54 µg/mL).

With `CC(C)(C)c1cc(N2CCNCC2)n2nc(-c3ccc(F)cc3)cc2n1` the IC50 at 72 h [1] was 2.75 µg/mL (≈ 7.78 µM), the IC50 (Trypanosoma brucei [2]; [38]) was 1.11 µg/mL (≈ 3.14 µM) and the chromatographic logD [5] was 4.15. The half-life at 1 µM [27] was over 350 min, the recovery at 1 h, 3 µM (MDR1 (ABCB1) [28]) was 103% and the Papp A→B at 1 h, 3 µM (MDR1 (ABCB1) [29]) was 10.3 ×10⁻⁶ cm/s. For the same molecule, the recovery at 1 h, 3 µM (MDR1 (ABCB1) [30]) was 88.4%, the recovery at 1 h, 3 µM (MDR1 (ABCB1) [31]) was 91% and the recovery at 1 h, 3 µM (MDR1 (ABCB1) [32]) was 76.1%. It also gave an efflux ratio (MDR1 (ABCB1) [25]; MDCK-MDR1, read-out: Calculated Ratio) of 0.08 and a solubility kinetic [8] of 50 µM (≈ 17.7 µg/mL).

`COc1ccc(/C(CNC2CCCCC2)=N/O)cc1` showed an IC50 at 24 h [11] of over 50 µg/mL, an IC50 (Trypanosoma brucei [2]; [38]) of 4.47 µg/mL (≈ 17 µM) and a chromatographic logD [5] of 2.93. For the same molecule, the solubility kinetic [8] was 13 µM (≈ 3.41 µg/mL), the “t (1 / 2)” value [33] was 11 min and the CLint in vitro [34] was 75 µL/min/mg. For the same molecule, the CLint in vitro [9] was 224 µL/min/mg, the half-life at 1 µM (in vitro [35]) was 13 min and the microsomal CLint at 1 µM (in vitro [36]) was 66 µL/min/mg. The microsomal CLint at 1 µM (in vitro [37]) was 235 µL/min/mg and the half-life at 1 µM (in vitro [10]) was 4 min.
